Where two headings read alike, the source gives them in different places.
Key:
[1] = test system: tyrosinase activity in human melanocytes; assay: Tyrosinase responses in human melanocytes (Table 6); assay type: cell-based; settings: Table 6, 10^-7 M except IBMX 10^-4 M, theophylline 1 mM, ammonium chloride 10 mM, A23187 not given, melanocytes from skin type III
Method: (§1) The mouse melanoma cell lines used to study the effects of lysosomotropic agents herein were the Cloudman S91 cell line (ATCC no. CCL 53.1) and two subclones of this line developed in our laboratory, the amelanotic line, AM-7, and a melanotic line, MEL-11A. All melanoma cell lines were grown in Ham's F-10 nutrient medium supplemented with 10% horse serum, penicillin (100 units/ml), and streptomycin (100 μg/ml). The normal human melanocyte cell strains used in this study were derived from foreskins of either neonares or from boys 2-6 years old. Human melanocyte cultures were grown in Ham's F-10 nutrient medium supplemented with 10% horse serum, 5% fetal bovine serum (FBS), 32 nM TPA (12-O-tetradecanoylphorbol 13-acetate), 10^-4 M IBMX(3-isobutyl-1-methylxanthine), penicillin (100 units/ml), and streptomycin (100 μg/ml).
(§2) To determine tyrosinase activity in situ in either melanoma cells or in human melanocyte cultures, the tyrosine hydroxylase activity of the enzyme was determined. Cells were seeded into 60-mm culture dishes at 2×10^5 cells/dish and allowed to attach overnight. The medium was then exchanged for the appropriate growth medium supplemented with 1 μCi/ml of [^3 H]tyrosine (L-ring-3,5-^3 H]-tyrosine, DuPont New England Nuclear), and with hormones, where indicated. Cells were grown in labeled medium for 24 hours, and at this time, the medium was removed and assayed for the presence of ^3 H2 O using the charcoal absorption method of Pomerantz. Tyrosinase activity in cell homogenates was determined by sonicating cell pellets in 0.1-M sodium phosphate buffer (pH 6.8) and then incubating 50-μl aliquots in 0.5 ml of a reaction mixture containing 0.1-mM tyrosine, 2 μCi/ml of [^3 H]tyrosine, 0.1-mM L-DOPA (dihydroxyphenylalanine), and 0.1 mM PMSF (phenylmethylsulfonyl fluoride) at 37° C. for 2 hours. Reactions were terminated by the addition of 1 ml of charcoal (10% w/v in 0.1-N HCl). Samples were centrifuged, and the supernatants removed for determination of the amount of ^3 H2 O produced.
Hormone responsiveness in human melanocyte cell cultures were examined (for these studies, melanocytes derived from skin type III were used). […] Tyrosinase activity and melanin content typically double with a 48-hour exposure to IBMX. […] The steroid hormones, for the most part, caused little, if any, change in tyrosinase activity at the concentrations used.

[2] = test system: tyrosinase activity in mouse melanoma cells; assay: Tyrosinase responses in mouse melanoma cells (Table 6); assay type: cell-based; settings: for Effect on Tyrosinase Activity, Mouse Melanoma: Table 6, 10^-7 M except IBMX 10^-4 M, theophylline 1 mM, ammonium chloride 10 mM, A23187 not given
Method: as §1
as §2, with “produced. […]” for “produced.”

[3] = test system: tyrosinase activity in mouse melanoma cells; settings: Cloudman S91; cited from earlier work
[4] = test system: tyrosinase activity in human foreskin organ cultures; assay: Tyrosinase activity in human foreskin organ cultures (tyrosine hydroxylase assay); assay type: cell-based; settings: for Tyrosinase activity stimulated, percentage of black foreskins / Tyrosinase activity unaffected, percentage of black foreskins / Tyrosinase activity stimulated, percentage of white foreskins / Tyrosinase activity unaffected, percentage of white foreskins: Table 1, Theophylline 1 mM, MSH 2 × 10^-7 M, dbcAMP 0.1 mM, D-phe-MSH 10^-8 M; for Tyrosinase activity stimulated, percentage of black foreskins / Tyrosinase activity unaffected, percentage of black foreskins: B = black; for Tyrosinase activity stimulated, percentage of black foreskins / Tyrosinase activity unaffected, percentage of black foreskins / Tyrosinase activity stimulated, percentage of white foreskins / Tyrosinase activity unaffected, percentage of white foreskins / activity at 1000 µM: 72 h; for Tyrosinase activity stimulated, percentage of white foreskins / Tyrosinase activity unaffected, percentage of white foreskins: W = white; for stimulation of tyrosinase activity: human foreskins, 72 hours; for activity at 1000 µM: Homo sapiens, read-out: Tyrosinase Activity, Percentage of control; for activity at 1000 µM / Tyrosinase Activity: Table 3, theophylline 1 mM, 3 days
Method: At the time of surgical removal, human foreskins were placed on sterile gauze saturated with sterile IMDM medium (Iscove's modified Dulbecco's medium purchased from Irvine Scientific of Santa Ana, Calif.) for transportation from the Hospital nursery to the laboratory. The tissues were rinsed in sterile IMDM medium containing 500 U/ml penicillin and 500 μg/ml of streptomycin for 5 minutes. Under sterile conditions, an intradermal injection of medium was performed from the dermal side prior to dissection of the mucous membrane and lower dermis by scissors to make the thickness of skins equal. The foreskins were then cut into approximately 3 mm×3 mm squares and either frozen at -75° C. or placed in organ culture as described hereafter.
The organ culture medium was prepared from IMDM with glutamine supplemented with 20% horse serum, 5% fetal bovine serum, 100 U/ml penicillin, 100 μg/ml streptomycin and 3 mg/ml sodium bicarbonate. The serums were obtained from Hyclone Lab. Inc. of Logan Utah. Culture units were prepared by placing sterilized filters (AP20 025 00, Millipore) over sterilized support screens ([…] Swinnex filter support screens, Millipore) in the wells of 6-well tissue culture plates (Falcon 3046) with medium added to the wells such that the skin support screens floated and the filter absorbed the medium from beneath. The tissue samples were placed, epidermis up, on top of the saturated filters and incubated at 37° C. in a 5% CO2 humidified atmosphere. The medium was changed everyday. Harvested cultures were frozen at -75° C.
Tyrosinase activity in human skin organ cultures was determined by measuring the tyrosine hydroxylase activity of the enzyme. The assay measures the production of ^3 H2 O during the conversion of [^3 H]tyrosine to L-DOPA. Weighed skin preparations were incubated in 0.3 ml of a reaction mixture containing 0.01 mM of L-tyrosine, 5-6 uCi/ml of [^3 H]tyrosine and 0.1 mM L-DOPA in 0.1M of pH 6.8 phosphate buffer for 4 hours at 37° C. To terminate the reaction, 1 ml of phosphate buffer was added, the tubes vortexed, and 0.4 ml aliquots removed in triplicate and mixed with an equal volume of Norit SG activated charcoal (10% w/v, in 0.1N HCl). Following centrifugation at 2000×g for 10 min, the supernatants (0.5 ml) were placed in scintillation vials, scintillation fluid added, and vials counted in a TM Analytic 6895 scintillation counter equipped with a DPM processor.
Human foreskins were treated with the compounds shown in Table 1, placed in culture, and incubated for 72 hours. The skins were then assayed for tyrosinase activity with the tyrosine hydroxylase assay method as described herein.
The medium and compounds were changed daily. Tyrosinase activity was determined by measuring the tyrosine hydroxylase activity of the enzyme.
Human foreskin organ cultures were treated with the compounds listed in Table 3 for 3 days and tyrosinase activity determined as described herein. Theophylline was used at 1 mM.

[5] = test system: tyrosinase activity in human melanocytes from white-skinned individuals; assay: Tyrosinase activity in human melanocytes from white skin; assay type: cell-based; settings: cell strain 69W; up to four hours; FIG. 8
Method: as §1, §2
Dose/response parameters for ammonium chloride action were determined. […] Since tyrosinase is the rate-limiting enzyme for melanin synthesis, the stimulation of this enzyme by ammonium chloride should lead to increased melanin content of stimulated cells. […] Ammonium chloride increased tyrosinase activity in melanocytes from white-skinned individuals twenty-fold within 24 hours and by this time melanin contents had increased two-fold. Two other lysosomotropic agents, monensin and nigericin, were tested for their effects on tyrosinase activity. […] Thus, lysosomotropic agents have the ability to stimulate tyrosinase activity and melanin production in human melanocytes derived from white-skinned individuals, and to reduce melanin production in melanocytes from black-skinned people.

[6] = White skin (control 0.31 ± 0.03)
[7] = first Black skin (control 2.55 ± 0.13)
[8] = second Black skin (control 3.09 ± 0.12)

For `CCCCCCCCCCCCCC(=O)O[C@@H]1[C@@H](C)[C@@]2(O)[C@@H](C=C(CO)C[C@]3(O)C(=O)C(C)=C[C@@H]23)[C@@H]2C(C)(C)[C@]12OC(C)=O` [TPA, 12-O-tetradecanoylphorbol 13-acetate], the “Effect on Tyrosinase Activity, Human Melanocyte” value (“Effect … Human Melanocyte” for short) [1] was “No effect”.
In the case of `C[C@]12CC[C@H]3[C@@H](CCC4=CC(=O)CC[C@@]43C)[C@@H]1CC[C@@H]2O` [Testosterone], the “Effect … Human Melanocyte” value [1] is reported as “No effect” and the “Effect on Tyrosinase Activity, Mouse Melanoma” value (“Effect … Mouse Melanoma” below) [2] is reported as “No effect”.
For `CCCC(=O)Nc1ncnc2c1ncn2[C@@H]1O[C@@H]2COP(=O)(O)O[C@H]2[C@H]1OC(=O)CCC` [dbcAMP, dibutyryl cyclic AMP], the “mimicking of the MSH response” value [3] is given as “mimicked”, the “Tyrosinase activity stimulated, percentage of black foreskins” value [4] is given as 33% and the “Tyrosinase activity unaffected, percentage of black foreskins” value [4] is given as 67%. For the same molecule, the “Tyrosinase activity stimulated, percentage of white foreskins” value [4] was 25%, the “Tyrosinase activity unaffected, percentage of white foreskins” value [4] was 75% and the “stimulation of tyrosinase activity” value [4] was “less effective in stimulating tyrosinase activity”.
With `CO[C@@H]1C[C@@H](C[C@H]2CC[C@H](C)[C@H]([C@@H](C)C(=O)O)O2)O[C@]2(O[C@](C)([C@H]3CC[C@@](C)([C@@H]4O[C@@H]([C@H]5O[C@@](O)(CO)[C@H](C)C[C@@H]5C)C[C@@H]4C)O3)C[C@H]2C)[C@@H]1C` [nigericin] the “stimulation of tyrosinase activity” value [5] was “stimulated tyrosinase activity”.
In the case of `C=C1CC[C@H](O)C/C1=C/C=C1\CCC[C@]2(C)[C@@H]([C@H](C)CCCC(C)C)CC[C@@H]12` [Vitamin D3], the “Effect … Human Melanocyte” value [1] is reported as “No effect” and the “Effect … Mouse Melanoma” value [2] is reported as “No effect”.
In the case of `CNc1ccc2oc(C[C@H]3O[C@@]4(CC[C@H]3C)O[C@H]([C@H](C)C(=O)c3ccc[nH]3)[C@H](C)C[C@H]4C)nc2c1C(=O)O` [A23187], the “Effect … Human Melanocyte” value [1] is reported as “No effect” and the “Effect … Mouse Melanoma” value [2] is reported as “Inhibited”.
In the case of `CC1(C)O[C@@H]2C[C@H]3[C@@H]4CCC5=CC(=O)C=C[C@]5(C)[C@@]4(F)[C@@H](O)C[C@]3(C)[C@]2(C(=O)CO)O1` [Triamcinolone acetonide], the “Effect … Human Melanocyte” value [1] is reported as “± (100-150% of control)” and the “Effect … Mouse Melanoma” value [2] is reported as “± (100-150% of control)”.
For `CCCCC[C@H](O)/C=C/[C@H]1[C@H](O)CC(=O)[C@@H]1CCCCCCC(=O)O` [Prostaglandin E1], the “Effect … Human Melanocyte” value [1] was “+ (150-200%)”.
In the case of `CC[C@@]1([C@@H]2O[C@@H]([C@H]3O[C@@](O)(CO)[C@H](C)C[C@@H]3C)C[C@@H]2C)CC[C@H]([C@]2(C)CC[C@]3(C[C@H](O)[C@@H](C)[C@@H]([C@@H](C)[C@@H](OC)[C@H](C)C(=O)O)O3)O2)O1` [monensin], the “stimulation of tyrosinase activity” value [5] is reported as “stimulated tyrosinase activity”.
For `Cn1c(=O)c2[nH]cnc2n(C)c1=O` [Theophylline, theophylline], the “mimicking of the MSH response” value [3] is given as “mimicked”, the activity at 1000 µM ([1]; Homo sapiens, Melanocyte, read-out: Effect on Tyrosinase Activity, Human Melanocyte) is given as 150 to 200% and the activity at 1000 µM [4, 6] is given as 307%. For the same molecule, the activity at 1000 µM [4, 7] was 212%, the activity at 1000 µM [4, 8] was 197% and the “Tyrosinase activity stimulated, percentage of black foreskins” value [4] was 92%. For the same molecule, the “Tyrosinase activity unaffected, percentage of black foreskins” value [4] was 8%, the “Tyrosinase activity stimulated, percentage of white foreskins” value [4] was 86% and the “Tyrosinase activity unaffected, percentage of white foreskins” value [4] was 14%. The “Tyrosinase Activity” value [4, 6] was 0.95 ± 0.05 pmoles ^3 H2 O/hr/mg skin, the “Tyrosinase Activity” value [4, 7] was 5.40 ± 0.26 pmoles ^3 H2 O/hr/mg skin and the “Tyrosinase Activity” value [4, 8] was 6.1 ± 0.24 pmoles ^3 H2 O/hr/mg skin. The “stimulation of tyrosinase activity” value [4] was “stronger stimulation of tyrosinase” and the “response of mouse melanoma cells” value ([2]; compounds that raise intracellular cAMP levels or MSH) was “respond vigorously”.
In the case of Insulin: Insulin, the “Effect … Human Melanocyte” value [1] is reported as “No effect”.
For `C[C@]12CC[C@@H]3c4ccc(O)cc4CC[C@H]3[C@@H]1CC[C@@H]2O` [Estradiol], the “Effect … Human Melanocyte” value [1] was “Inhibited” and the “Effect … Mouse Melanoma” value [2] was “No Effect”.
For `Nc1ncnc2c1nc(Br)n2[C@@H]1O[C@@H]2COP(=O)(O)O[C@H]2[C@H]1O` [8-bromo cAMP], the “mimicking of the MSH response” value [3] is listed as “mimicked”.
With `CC(=O)[C@H]1CC[C@H]2[C@@H]3CCC4=CC(=O)CC[C@]4(C)[C@H]3CC[C@]12C` [Progesterone] the “Effect … Human Melanocyte” value [1] was “± (100-150% of control)” and the “Effect … Mouse Melanoma” value [2] was “± (100-150% of control)”.

From patent US5554359A, “Pigmentation enhancer and method” (priority 1994, dated 1996)
